# Results published in patent US20190234956A1 (priority 2016, published 2019).
# How the values were obtained:
# [1] = background statement; cited from earlier work
# Ms sGC-NT23 [2] = test: Determination of CO dissociation constants, Ms sGC-NT23; type: binding, Manduca sexta; settings: stimulator 5 μM, versus no stimulator
# [3] = tested on: bacterial H-NOX proteins (Cb SONO, Ns H-NOX, So H-NOX, Sw H-NOX); type: binding
# Ms sGC-NT23 [4] = test: Photoaffinity labeling with IWP-854, western blot, Ms sGC-NT23; type: binding, Manduca sexta
# Ms sGC-β1 = test: Photoaffinity labeling with IWP-854, western blot, Ms sGC-β1; type: binding, Manduca sexta
# [5] = tested on: bacterial H-NOX proteins (Cb SONO, Ns H-NOX, So H-NOX, Sw H-NOX); type: binding; remark: listed apart in the source
# Compound solubility = type: physicochemical
# human sGC = target: T1, human sGC (Homo sapiens, UniProt Q02153); test: cGMP measurement, catalytic activity of human sGC in transfected HEK293T lysate; type: biochemical; settings: stimulator 5 μM
# T1 construct: Hs SGC-β1 (β1 1-619-His6); expressed in transfected cells; host or cells: HEK293T
# T1 sequence (Q02153 1-619): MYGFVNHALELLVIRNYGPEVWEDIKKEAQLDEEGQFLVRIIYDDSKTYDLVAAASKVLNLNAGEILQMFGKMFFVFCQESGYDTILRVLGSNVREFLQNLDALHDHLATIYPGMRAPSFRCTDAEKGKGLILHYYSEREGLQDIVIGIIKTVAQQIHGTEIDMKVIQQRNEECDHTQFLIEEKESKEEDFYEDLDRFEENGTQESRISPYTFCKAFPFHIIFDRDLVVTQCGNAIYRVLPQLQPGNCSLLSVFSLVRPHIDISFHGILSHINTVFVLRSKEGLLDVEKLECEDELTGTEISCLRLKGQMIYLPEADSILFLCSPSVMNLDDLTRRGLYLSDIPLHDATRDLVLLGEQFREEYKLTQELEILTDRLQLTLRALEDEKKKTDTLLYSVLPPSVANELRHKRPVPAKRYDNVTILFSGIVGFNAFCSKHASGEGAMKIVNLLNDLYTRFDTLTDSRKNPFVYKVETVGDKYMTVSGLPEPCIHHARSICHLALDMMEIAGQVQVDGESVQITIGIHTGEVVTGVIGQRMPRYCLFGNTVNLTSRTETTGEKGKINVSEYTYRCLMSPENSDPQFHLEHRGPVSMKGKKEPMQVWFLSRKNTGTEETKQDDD
# T1 sequence (Q02108 1-690 partner): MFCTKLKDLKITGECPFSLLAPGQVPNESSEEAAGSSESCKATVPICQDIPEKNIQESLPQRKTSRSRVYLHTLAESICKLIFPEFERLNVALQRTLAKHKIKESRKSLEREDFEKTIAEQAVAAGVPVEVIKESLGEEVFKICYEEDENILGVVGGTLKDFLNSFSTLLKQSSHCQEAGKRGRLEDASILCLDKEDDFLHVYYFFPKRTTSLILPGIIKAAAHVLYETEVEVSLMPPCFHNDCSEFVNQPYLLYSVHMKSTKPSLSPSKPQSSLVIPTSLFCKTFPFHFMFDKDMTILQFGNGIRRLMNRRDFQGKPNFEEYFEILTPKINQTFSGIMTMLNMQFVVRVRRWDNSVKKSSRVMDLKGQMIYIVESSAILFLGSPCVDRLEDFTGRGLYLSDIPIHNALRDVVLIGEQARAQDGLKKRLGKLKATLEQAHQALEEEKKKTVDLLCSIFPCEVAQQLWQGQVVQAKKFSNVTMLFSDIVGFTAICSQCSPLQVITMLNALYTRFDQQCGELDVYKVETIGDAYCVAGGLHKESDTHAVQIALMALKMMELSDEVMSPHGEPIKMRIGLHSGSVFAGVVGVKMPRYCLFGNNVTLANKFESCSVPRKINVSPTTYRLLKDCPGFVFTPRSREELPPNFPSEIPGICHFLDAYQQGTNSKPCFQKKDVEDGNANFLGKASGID
# full-length Hs sGC = target: T2, full-length Hs sGC (Homo sapiens, UniProt Q02153); test: Photoaffinity labeling with IWP-854, western blot, full-length Hs sGC; type: binding; settings: IWP-854 1 μM; not competed away with excess stimulator
# T2 construct: Full-length human sGC was purchased from Enzo Life Sciences, Inc; purchased Enzo Life Sciences, Inc
# T2 sequence (Q02153 1-619): T1 sequence (Q02153 1-619)
# T2 sequence (Q02108 1-690 partner): T1 sequence (Q02108 1-690 partner)
SMILES,solubility compared with traditional stimulators [1],enhancement of CO affinity (Ms sGC-NT23 [2]),enhancement of CO binding [3],competition of IWP-854 cross-linking (Ms sGC-NT23 [4]; BAY 41-2272 1-25 μM against IWP-854 1 μM),competition of IWP-854 labeling (Ms sGC-β1; BAY 41-2272 against IWP-854),competition of IWP-854 labeling [5],compound solubility (Compound solubility),increase of sGC activity over basal levels (human sGC; absence of added NO),"stimulation of recombinant human sGC, compared with BAY 41-2272 (human sGC; basal and NO stimulated)",increase of sGC activity over basal (human sGC; upon addition of NO (DEA/NO 100 μM)),"subunit cross-linked by IWP-854 (Ms sGC-NT23 [4]; IWP-854 1 μM, 15 min UV, anti-biotin western blot)",labeling of the α1 subunit (full-length Hs sGC),labeling of the isolated β1 subunit (Ms sGC-β1; β1 residues 1-380),amount of IWP-854 required for photoaffinity labeling relative to sGC constructs [5],labeling of bacterial H-NOX proteins [5]
O=c1[nH]c(-c2cc(-c3ccon3)n(Cc3ccccc3F)n2)ncc1F [IWP-051],improved solubility over traditional stimulators,–,–,–,–,–,–,–,–,–,–,–,–,–,–
"Nc1nc(-c2nn(Cc3ccccc3F)c3ncccc23)ncc1C1CC1 [BAY 41-2272, reference compound]",–,14 fold,did not enhance CO binding,attenuated IWP-854 cross-linking to Ms sGC-NT23 in a concentration-dependent manner,failed to diminish IWP-854 labeling,reduced but not eliminated,poor compound solubility,–,–,–,–,–,–,–,–
CC1(CCCN(CCOCCOCCOCCOCCC(=O)NCCOCCOCCOCCOCCOCCOCCOCCOCCOCCOCCOC(C)(C)CCNC(=O)CCCCC2SC[C@@H]3NC(=O)N[C@H]23)c2nc(-c3cc(-c4ccon4)n(Cc4ccccc4F)n3)ncc2F)N=N1 (stereo partly shown) [IWP-854],–,34 fold,–,–,–,–,–,12 fold,stimulate to a similar extent as BAY 41-2272,84 fold,cross-links exclusively to the β1 subunit,Faint labeling was observed on the α1 subunit,labeled the isolated β1 subunit,10 fold,labeled all four bacterial H-NOX proteins
